Source: ChEMBL document CHEMBL1152321, “Recent advances in the chemistry and biology of new generation taxoids” (J Nat Prod, 2009)

Tests used:
[1] = Cytotoxicity against P-glycoprotein deficient wild type human LCC-6 cells after 72 hrs; type: functional, cell-based; conditions: LCC-6, 72 h
[2] = Resistance factor, ratio of IC50 for human LCC-6 cells expressing P-glycoprotein to IC50 for P-glycoprotein deficient wild type human LCC-6 cells; type: functional; set-up: reference not given here
[3] = tested on: MCF7; test: Resistance factor, ratio of IC50 for P-glycoprotein deficient wild type human MCF7 cells to IC50 for multidrug-resistant human NCI/ADR cells; type: functional
[4] = tested on: A2780; test: Resistance factor, ratio of IC50 for paclitaxel and cyclosporine-resistant human A2780TC3 cells overexpressing class 3 beta-tubulin to IC50 for wild type human A2780 cells; type: functional
[5] = tested on: A2780; test: Cytotoxicity against human cisplatin-resistant A2780 cells after 72 hrs; type: functional, cell-based; conditions: A2780, 72 h
[6] = Activity ratio of compound IC50 to paclitaxel IC50 for paclitaxel and cyclosporine-resistant human A2780TC3 cells overexpressing class 3 beta-tubulin; type: functional
[7] = tested on: A2780; test: Cytotoxicity against human wild type A2780 cells after 72 hrs; type: functional, cell-based; conditions: A2780, 72 h
[8] = Cytotoxicity against human paclitaxel and cyclosporine-resistant A2780TC3 cells overexpressing class 3 beta-tubulin after 72 hrs; type: functional, cell-based; conditions: A2780TC3, 72 h
[9] = tested on: A2780; test: Cytotoxicity against human topotecan-resistant A2780 cells after 72 hrs; type: functional, cell-based; conditions: A2780, 72 h
[10] = Cytotoxicity against human A2780/ADR cells after 72 hrs; type: functional, cell-based
[11] = Cytotoxicity against human paclitaxel and cyclosporine-resistant A2780TC1 cells overexpressing class 3 beta-tubulin after 72 hrs; type: functional, cell-based; conditions: A2780TC1, 72 h
[12] = tested on: MCF7; test: Resistance factor, ratio of IC50 for human MCF7 cells expressing P-glycoprotein to IC50 for P-glycoprotein deficient wild type human MCF7 cells; type: functional
[13] = tested on: MCF7; test: Cytotoxicity against P-glycoprotein deficient wild type human MCF7 cells after 72 hrs; type: functional, cell-based; conditions: MCF7, 72 h
[14] = tested on: MCF7; test: Cytotoxicity against human MCF7 cells expressing P-glycoprotein after 72 hrs; type: functional, cell-based; conditions: MCF7, 72 h
[15] = tested on: HT-29; test: Cytotoxicity against human HT-29 cells after 72 hrs; type: functional, cell-based; conditions: HT-29, 72 h
[16] = tested on: PANC-1; test: Cytotoxicity against human PANC1 cells expressing mdr1, mrp1, mrp2, lrp genes after 72 hrs; type: functional, cell-based; conditions: PANC-1, 72 h
[17] = Cytotoxicity against multidrug-resistant human NCI/ADR cells after 72 hrs; type: functional, cell-based; conditions: NCI/ADR-RES
[18] = Cytotoxicity against human LCC-6 cells expressing P-glycoprotein after 72 hrs; type: functional, cell-based; conditions: LCC-6, 72 h

SMILES: CCC(=O)O[C@H]1C(=O)[C@@]2(C)[C@H]([C@H](OC(=O)c3ccccc3)[C@]3(O)C[C@H](OC(=O)[C@H](O)[C@H](C=C(C)C)NC(=O)C4=CCCC4)C(C)=C1C3(C)C)[C@]1(OC(C)=O)CO[C@@H]1C[C@@H]2O
- IC50 [1]: 1.2 nM
- Ratio [2]: 12
- Ratio [3]: 15

SMILES: CC(=O)O[C@@]1(C2/C(C)=C(/O)C(=O)C3=C(C)[C@@H](OC(=O)[C@H](O)[C@H](CC(C)C)NC(=O)OC(C)(C)C)C[C@@](O)([C@H]2OC(=O)c2ccccc2)C3(C)C)CO[C@@H]1CCO (stereo partly specified)
- Ratio IC50 [4]: 129
- IC50 [5]: 16.8 nM
- Ratio IC50 [6]: 8
- IC50 [7]: 17.4 nM
- IC50 [8]: 2240 nM
- IC50 [9]: 27.5 nM
- IC50 [10]: 2620 nM
- IC50 [11]: 2060 nM

SMILES: CCC(=O)O[C@H]1C(=O)[C@@]2(C)[C@H]([C@H](OC(=O)c3cccc(OC)c3)[C@]3(O)C[C@H](OC(=O)[C@H](O)[C@H](CC(C)C)NC(=O)C4CC4)C(C)=C1C3(C)C)[C@]1(OC(C)=O)CO[C@@H]1C[C@@H]2O
- IC50 [1]: 0.6 nM
- Ratio [2]: 22
- Ratio [3]: 30

SMILES: CC(=O)O[C@@]12CO[C@@H]1C[C@H](O)[C@@]1(C)C(=O)[C@H](OC(=O)N(C)C)C3=C(C)[C@@H](OC(=O)[C@H](O)[C@H](C=C(F)F)NC(=O)OC(C)(C)C)C[C@@](O)([C@@H](OC(=O)c4ccccc4)[C@H]21)C3(C)C
- Ratio [12]: 33
- IC50 [13]: 0.13 nM
- IC50 [14]: 4.3 nM
- IC50 [15]: 0.46 nM
- IC50 [16]: 1.58 nM

SMILES: CCC(=O)O[C@H]1C(=O)[C@@]2(C)[C@H]([C@H](OC(=O)c3cccc(OC)c3)[C@]3(O)C[C@H](OC(=O)[C@H](O)[C@H](CC(C)C)NC(=O)OC4CCCC4)C(C)=C1C3(C)C)[C@]1(OC(C)=O)CO[C@@H]1C[C@@H]2O
- IC50 [1]: 0.76 nM
- Ratio [2]: 3.4
- Ratio [3]: 6.9

SMILES: CC(=O)O[C@@]1([C@@H]2/C(C)=C(/O)C(=O)C3=C(C)[C@@H](OC(=O)[C@H](O)[C@H](C=C(C)C)NC(=O)OC(C)(C)C)C[C@@](O)([C@H]2OC(=O)c2cccc(F)c2)C3(C)C)CO[C@@H]1CCO
- IC50 [5]: 4.9 nM
- IC50 [7]: 6.1 nM
- IC50 [8]: 745 nM
- IC50 [9]: 6.9 nM
- IC50 [10]: 2220 nM
- IC50 [11]: 4450 nM

SMILES: CC(=O)O[C@H]1C(=O)[C@@]2(C)[C@H]([C@H](OC(=O)c3ccccc3)[C@]3(O)[C@H]4OC/C=C\OCc5ccccc5C(=O)N[C@@H](c5ccccc5)[C@@H](O)C(=O)O[C@@H]4C(C)=C1C3(C)C)[C@]1(OC(C)=O)CO[C@@H]1C[C@@H]2O
- IC50 [17]: 1140 nM
- IC50 [18]: 1920 nM
- IC50 [7]: 198 nM
- IC50 [13]: 196 nM
- IC50 [1]: 348 nM
- IC50 [15]: 62 nM

SMILES: CCC(=O)O[C@H]1C(=O)[C@@]2(C)[C@H]([C@H](OC(=O)c3ccccc3)[C@]3(O)C[C@H](OC(=O)[C@H](O)[C@H](CC(C)C)NC(=O)OC4CCCCC4)C(C)=C1C3(C)C)[C@]1(OC(C)=O)CO[C@@H]1C[C@@H]2O
- IC50 [1]: 4.8 nM
- Ratio [2]: 3.8
- Ratio [3]: 10

SMILES: COc1cccc(C(=O)O[C@H]2[C@@H]3[C@]4(OC(C)=O)CO[C@@H]4C[C@H](O)[C@@]3(C)C(=O)[C@H](OC(=O)OCc3ccccc3)C3=C(C)[C@@H](OC(=O)[C@H](O)[C@H](C=C(C)C)NC(=O)OC(C)(C)C)C[C@]2(O)C3(C)C)c1
- IC50 [1]: 1.2 nM
- Ratio [2]: 1.5
- Ratio [3]: 7.5

SMILES: CCC(=O)O[C@H]1C(=O)[C@@]2(C)[C@H]([C@H](OC(=O)c3cccc(OC)c3)[C@]3(O)C[C@H](OC(=O)[C@H](O)[C@H](C=C(C)C)NC(=O)C4CCC4)C(C)=C1C3(C)C)[C@]1(OC(C)=O)CO[C@@H]1C[C@@H]2O
- IC50 [1]: 1.6 nM
- Ratio [2]: 9.4
- Ratio [3]: 11

SMILES: COc1cccc(C(=O)O[C@H]2[C@@H]3[C@]4(OC(C)=O)CO[C@@H]4C[C@H](O)[C@@]3(C)C(=O)[C@H](OC(=O)c3ccccc3OC)C3=C(C)[C@@H](OC(=O)[C@H](O)[C@H](C=C(C)C)NC(=O)OC(C)(C)C)C[C@]2(O)C3(C)C)c1
- IC50 [1]: 0.4 nM
- Ratio [2]: 2.3
- Ratio [3]: 3

SMILES: CC(=O)O[C@H]1C(=O)[C@@]2(C)[C@H]([C@H](OC(=O)c3ccccc3)[C@]3(O)C[C@H](OC(=O)[C@H](O)[C@H](C=C(F)F)NC(=O)OC(C)(C)C)C(C)=C1C3(C)C)[C@]1(OC(C)=O)CO[C@@H]1C[C@@H]2O
- Ratio [12]: 9.6
- IC50 [13]: 0.099 nM
- IC50 [14]: 0.95 nM
- IC50 [15]: 0.41 nM
- IC50 [16]: 1.19 nM
